Results taken from ChEMBL document CHEMBL3045117, “Synthesis, crystal structures, insecticidal activities, and structure--activity relationships of novel N'-tert-Butyl-N'-substituted-benzoyl-N-[di(octa)hydro]benzofuran{(2,3-dihydro)benzo[1,3]([1,4])dioxine}carbohydrazide derivatives” (2011).

Tests used:
Assay type in all cases: functional
[1] = test system: Mythimna separata; test: Stomach toxicity against third-instar Mythimna separata (Oriental armyworm) in compound treated fresh corn leaves assessed as insecticidal activity at 200 mg/L measured after 4 days by leaf-dip method
[2] = test system: Mythimna separata; test: Stomach toxicity against third-instar Mythimna separata (Oriental armyworm) in compound treated fresh corn leaves assessed as insecticidal activity at 100 mg/L measured after 4 days by leaf-dip method
[3] = test system: Mythimna separata; test: Stomach toxicity against third-instar Mythimna separata (Oriental armyworm) in compound treated fresh corn leaves assessed as insecticidal activity at 50 mg/L measured after 4 days by leaf-dip method
[4] = test system: Mythimna separata; test: Stomach toxicity against third-instar Mythimna separata (Oriental armyworm) in compound treated fresh corn leaves assessed as insecticidal activity at 25 mg/L measured after 4 days by leaf-dip method
[5] = test system: Spodoptera exigua; test: Stomach toxicity against third-instar Spodoptera exigua in compound treated fresh cabbage leaves assessed as insecticidal activity at 200 mg/L measured after 3 days by leaf-dip method
[6] = test system: Spodoptera exigua; test: Stomach toxicity against third-instar Spodoptera exigua in compound treated fresh cabbage leaves assessed as insecticidal activity at 100 mg/L measured after 3 days by leaf-dip method
[7] = test system: Plutella xylostella; test: Stomach toxicity against third-instar Plutella xylostella (diamondback moth) in compound treated fresh cabbage leaves assessed as insecticidal activity at 200 mg/L measured after 3 days by leaf-dip method
[8] = test system: Ostrinia nubilalis; test: Stomach toxicity against third-instar Ostrinia nubilalis (European corn borer) in compound treated fresh corn leaves assessed as insecticidal activity at 200 mg/L measured after 4 days by leaf-dip method
[9] = test system: Mythimna separata; test: Stomach toxicity against third-instar Mythimna separata (Oriental armyworm) in compound treated fresh corn leaves assessed as insecticidal activity at 10 mg/L measured after 4 days by leaf-dip method
[10] = test system: Spodoptera exigua; test: Stomach toxicity against third-instar Spodoptera exigua in compound treated fresh cabbage leaves assessed as insecticidal activity at 50 mg/L measured after 3 days by leaf-dip method
[11] = test system: Spodoptera exigua; test: Stomach toxicity against third-instar Spodoptera exigua in compound treated fresh cabbage leaves assessed as insecticidal activity at 10 mg/L measured after 3 days by leaf-dip method
[12] = test system: Plutella xylostella; test: Stomach toxicity against third-instar Plutella xylostella (diamondback moth) in compound treated fresh cabbage leaves assessed as insecticidal activity at 100 mg/L measured after 3 days by leaf-dip method
[13] = test system: Plutella xylostella; test: Stomach toxicity against third-instar Plutella xylostella (diamondback moth) in compound treated fresh cabbage leaves assessed as insecticidal activity at 50 mg/L measured after 3 days by leaf-dip method

## Cc1cc2c(C(=O)NN(C(=O)c3cc([N+](=O)[O-])cc([N+](=O)[O-])c3)C(C)(C)C)cccc2o1
[1]
  Activity: 0%

## Cc1cc(C)cc(C(=O)N(NC(=O)c2cccc3c2OCO3)C(C)(C)C)c1
[1]
  Activity: 100%
[2]
  Activity: 100%
[3]
  Activity: 100%
[4]
  Activity: 30%
[5]
  Activity: 100%
[6]
  Activity: 80%
[7]
  Activity: 0%
[8]
  Activity: 30%

## Cc1cc2c(C(=O)NN(C(=O)c3ccc(Cl)cc3)C(C)(C)C)cccc2o1
[1]
  Activity: 0%

## Cc1cc(C)cc(C(=O)N(NC(=O)C2CCCC3OC(C)CC32)C(C)(C)C)c1 (configuration not stated)
[1]
  Activity: 0%

## Cc1cc(C)cc(C(=O)N(NC(=O)c2cccc3c2CC(C)O3)C(C)(C)C)c1 (configuration not stated)
[1]
  Activity: 100%
[2]
  Activity: 100%
[3]
  Activity: 100%
[4]
  Activity: 100%
[9]
  Activity: 60%
[5]
  Activity: 100%
[6]
  Activity: 100%
[10]
  Activity: 100%
[11]
  Activity: 80%
[7]
  Activity: 100%
[12]
  Activity: 100%
[13]
  Activity: 50%
[8]
  Activity: 70%

## Cc1cc(C)cc(C(=O)N(NC(=O)c2ccc3c(c2C)CCCO3)C(C)(C)C)c1 [CHROMAFENOZIDE]
[1]
  Activity: 100%
[2]
  Activity: 100%
[3]
  Activity: 100%
[4]
  Activity: 100%
[9]
  Activity: 100%
[5]
  Activity: 100%
[6]
  Activity: 100%
[10]
  Activity: 100%
[11]
  Activity: 100%
[7]
  Activity: 100%
[12]
  Activity: 100%
[13]
  Activity: 100%
[8]
  Activity: 100%

## Cc1cc2c(C(=O)NN(C(=O)c3cc(Cl)cc(Cl)c3)C(C)(C)C)cccc2o1
[1]
  Activity: 0%

## Cc1cc2c(C(=O)NN(C(=O)c3cccc(Cl)c3)C(C)(C)C)cccc2o1
[1]
  Activity: 0%

## Cc1cc(C)cc(C(=O)N(NC(=O)c2ccc3c(c2C)OC(C)C3)C(C)(C)C)c1 (configuration not stated) [FUXIAN]
[1]
  Activity: 100%
[2]
  Activity: 100%
[3]
  Activity: 100%
[4]
  Activity: 100%
[9]
  Activity: 100%
[5]
  Activity: 100%
[6]
  Activity: 100%
[10]
  Activity: 100%
[11]
  Activity: 90%
[7]
  Activity: 100%
[12]
  Activity: 100%
[13]
  Activity: 100%
[8]
  Activity: 100%

## Cc1cc(C)cc(C(=O)N(NC(=O)c2ccccc2)C(C)(C)C)c1
[1]
  Activity: 100%
[2]
  Activity: 100%
[3]
  Activity: 100%
[4]
  Activity: 100%
[9]
  Activity: 80%

## Cc1cc(C)cc(C(=O)N(NC(=O)c2cccc3c2OCCO3)C(C)(C)C)c1
[1]
  Activity: 0%

## Cc1cc(C)cc(C(=O)N(NC(=O)c2cccc3c2CCCO3)C(C)(C)C)c1
[1]
  Activity: 30%
[5]
  Activity: 0%
[7]
  Activity: 0%
[8]
  Activity: 0%

## Cc1cc(C)cc(C(=O)N(NC(=O)c2ccc3c(c2)OC(C)C3)C(C)(C)C)c1 (configuration not stated)
[1]
  Activity: 100%
[2]
  Activity: 100%
[3]
  Activity: 100%
[4]
  Activity: 100%
[9]
  Activity: 70%
[5]
  Activity: 100%
[6]
  Activity: 100%
[10]
  Activity: 100%
[11]
  Activity: 90%
[7]
  Activity: 80%
[8]
  Activity: 60%

## Cc1cc(C)cc(C(=O)N(NC(=O)c2cccc3oc(C)cc23)C(C)(C)C)c1
[1]
  Activity: 80%
[5]
  Activity: 70%
[7]
  Activity: 50%
[8]
  Activity: 40%

## COc1cccc(C(=O)NN(C(=O)c2cc(C)cc(C)c2)C(C)(C)C)c1C [METHOXYFENOZIDE]
[1]
  Activity: 100%
[2]
  Activity: 100%
[3]
  Activity: 100%
[4]
  Activity: 100%
[9]
  Activity: 100%
[5]
  Activity: 100%
[6]
  Activity: 100%
[10]
  Activity: 100%
[11]
  Activity: 100%
[7]
  Activity: 100%
[12]
  Activity: 100%
[13]
  Activity: 100%
[8]
  Activity: 100%

## Cc1cc(C)cc(C(=O)N(NC(=O)c2ccc3cc(C)oc3c2)C(C)(C)C)c1
[1]
  Activity: 100%
[2]
  Activity: 100%
[3]
  Activity: 100%
[4]
  Activity: 100%
[9]
  Activity: 50%
[5]
  Activity: 100%
[6]
  Activity: 100%
[10]
  Activity: 100%
[11]
  Activity: 90%
[7]
  Activity: 100%
[12]
  Activity: 100%
[13]
  Activity: 70%
[8]
  Activity: 40%

## Cc1cc(C)cc(C(=O)N(NC(=O)C2CCCCC2)C(C)(C)C)c1
[1]
  Activity: 100%
[2]
  Activity: 100%
[3]
  Activity: 20%

## Cc1cc2c(C(=O)NN(C(=O)c3ccccc3Cl)C(C)(C)C)cccc2o1
[1]
  Activity: 0%
